For 41 molecules, Motility results are on record in ChEMBL document CHEMBL3137381, “MMV Box Onchocerca lienalis screening set”.

Molecules are shown by their SMILES.

Holding throughout (format): functional
In assay [1] the test system is Onchocerca lienalis. The assay can be described thus: MMV: Percent motility assay at a compound concentration of 1.9e-7 M. Activity score legend: 3: Active, 2: Moderately active; 1: Inactive, 0: Toxic. Conditions: at 0.19 µM.
In assay [2] the test system is Onchocerca lienalis. The assay can be described thus: MMV: Percent motility assay at a compound concentration of 7.8e-7 M. Activity score legend: 3: Active, 2: Moderately active; 1: Inactive, 0: Toxic. As to conditions: at 0.78 µM.
Assay [3] deals with Onchocerca lienalis. As to the kind of experiment: MMV: Percent motility assay at a compound concentration of 3.1e-6 M. Activity score legend: 3: Active, 2: Moderately active; 1: Inactive, 0: Toxic. Conditions: at 3.1 µM.
Assay [4] deals with Onchocerca lienalis. As to the kind of experiment: MMV: Percent motility assay at a compound concentration of 1.25e-5 M. Activity score legend: 3: Active, 2: Moderately active; 1: Inactive, 0: Toxic. As to conditions: at 12.5 µM.

Turning to `O=C(Nc1ccccc1O)c1ccc(Oc2cccc(C(=O)Nc3ccccc3O)c2)cc1`, the Motility in the assay on Onchocerca lienalis [1], with Onchocerca lienalis [2], in the assay with Onchocerca lienalis [3] and in the assay on Onchocerca lienalis [4] was 100% in each case.

As to `Cl.N=c1n(CCN2CCCCC2)c2ccccc2n1CC(O)c1cccc(Br)c1` (centres undefined), the Motility in the assay on Onchocerca lienalis [1], in the assay on Onchocerca lienalis [2], in the assay with Onchocerca lienalis [3] and with Onchocerca lienalis [4] was 100% each time.

Consider `COc1cccc(O)c1CN1CCC2(CCCN(Cc3ccc(F)cc3)C2)C1` (centres undefined), for which the Motility with Onchocerca lienalis [1], in the assay on Onchocerca lienalis [2], in the assay with Onchocerca lienalis [3] and in the assay on Onchocerca lienalis [4] was 100% each time.

For the molecule `O=C(NCc1ccco1)C1CCN(S(=O)(=O)c2ccc(Cl)cc2)CC1`, the Motility in the assay with Onchocerca lienalis [1], with Onchocerca lienalis [2], in the assay with Onchocerca lienalis [3] and in the assay with Onchocerca lienalis [4] was 100% each time.

Regarding `COc1ccc(C(=O)Nc2ccc3nc(N4CCCCC4)cc(C)c3c2)cc1OC`, the Motility with Onchocerca lienalis [1], in the assay with Onchocerca lienalis [2], in the assay on Onchocerca lienalis [3] and in the assay on Onchocerca lienalis [4] was 100% each time.

Turning to `FC(F)(F)c1ccc(Nc2nnnc3ccccc23)cc1`, the Motility with Onchocerca lienalis [1], in the assay on Onchocerca lienalis [2], in the assay with Onchocerca lienalis [3] and with Onchocerca lienalis [4] was 100% throughout.

For `c1ccc(-c2ccc(-c3nc4ccccc4[nH]3)cc2)cc1`, the Motility in the assay on Onchocerca lienalis [1] was 100%; in the assay with Onchocerca lienalis [2], 100%; in the assay on Onchocerca lienalis [3], 100%; in the assay on Onchocerca lienalis [4], 66.6%.

As to `CCC(C)NCC(O)(c1ccc(Cl)cc1)c1ccc(Cl)cc1` (centres undefined), the Motility with Onchocerca lienalis [1], in the assay with Onchocerca lienalis [2], with Onchocerca lienalis [3] and in the assay with Onchocerca lienalis [4] was 100% in each case.

Turning to `COc1cccc(NC(=O)Cn2c(C)c(C#N)c3ccccc32)c1`, the Motility in the assay on Onchocerca lienalis [1], in the assay on Onchocerca lienalis [2], with Onchocerca lienalis [3] and in the assay with Onchocerca lienalis [4] was 100% in each case.

For the molecule `COCCNC(=O)c1ccc(OC2CCN(Cc3ccc(F)c(F)c3)CC2)c(Cl)c1`, the Motility in the assay on Onchocerca lienalis [1] is reported as 100%; in the assay with Onchocerca lienalis [2] it was 100%; in the assay on Onchocerca lienalis [3], 100%; with Onchocerca lienalis [4], 46.6%.

`CC(C)=CCN1CCC(C(=O)Nc2ccc(-c3nc4ccccc4[nH]3)cc2)CC1`: the Motility in the assay with Onchocerca lienalis [1], with Onchocerca lienalis [2], in the assay on Onchocerca lienalis [3] and in the assay with Onchocerca lienalis [4] was 100% throughout.

Take `O=C(CCc1ccco1)NC1CCN(CC2(c3ccc(Cl)cc3)CCC2)CC1`: the Motility with Onchocerca lienalis [1], in the assay with Onchocerca lienalis [2], with Onchocerca lienalis [3] and in the assay on Onchocerca lienalis [4] was 100% each time.

As to `FC(F)(F)c1cccc(Nc2nc(-c3ccccc3)nc3ncccc23)c1`, the Motility in the assay on Onchocerca lienalis [1], in the assay on Onchocerca lienalis [2], in the assay on Onchocerca lienalis [3] and in the assay on Onchocerca lienalis [4] was 100% in each case.

As for `CCN1CCN(c2cc(C)c3cc(NC(=O)c4ccc(OC)c(OC)c4)ccc3n2)CC1`, the Motility in the assay on Onchocerca lienalis [1], in the assay with Onchocerca lienalis [2], with Onchocerca lienalis [3] and in the assay on Onchocerca lienalis [4] was 100% each time.

`COc1ccc(CNC2CCN(c3ccc(NC(=O)c4cccc(Cl)c4)cc3)CC2)cc1OC`: the Motility in the assay with Onchocerca lienalis [1], in the assay on Onchocerca lienalis [2], in the assay on Onchocerca lienalis [3] and in the assay on Onchocerca lienalis [4] was 100% each time.

Turning to `COCCN(C(=O)Cc1cccs1)C(C(=O)NCc1ccc(OC)cc1)c1ccc(C(C)C)cc1` (centres undefined), the Motility in the assay on Onchocerca lienalis [1] is reported as 100%; with Onchocerca lienalis [2], 100%; with Onchocerca lienalis [3] it was 100%; with Onchocerca lienalis [4] it was 46.6%.

Take `FC(F)(F)c1cccc(CNC2CCN(CCc3ccccc3)CC2)c1`: the Motility with Onchocerca lienalis [1], in the assay on Onchocerca lienalis [2], with Onchocerca lienalis [3] and in the assay on Onchocerca lienalis [4] was 100% in each case.

For `Oc1ccc(Cl)cc1CNc1nc2ccccc2[nH]1`, the Motility came out at 100% with Onchocerca lienalis [1], 100% in the assay on Onchocerca lienalis [2], 100% with Onchocerca lienalis [3] and 66.6% with Onchocerca lienalis [4].

Turning to `O=C(c1ccccc1F)N(Cc1ccc(Cl)cc1)c1ccccn1`, the Motility in the assay on Onchocerca lienalis [1], in the assay on Onchocerca lienalis [2], in the assay on Onchocerca lienalis [3] and in the assay on Onchocerca lienalis [4] was 100% each time.

For `COc1ccc(C(=O)Nc2ccc(Cl)cc2C(=O)Nc2ccncc2)cc1`, the Motility in the assay on Onchocerca lienalis [1], in the assay with Onchocerca lienalis [2], in the assay on Onchocerca lienalis [3] and in the assay with Onchocerca lienalis [4] was 100% throughout.

For the molecule `O=C(Nc1ccc(Cl)cc1)N1CCN(c2ccc3nncn3n2)CC1`, the Motility with Onchocerca lienalis [1], in the assay with Onchocerca lienalis [2], in the assay on Onchocerca lienalis [3] and in the assay with Onchocerca lienalis [4] was 100% throughout.

With `CN(C)c1ccc(-c2nc3cc(N)ccc3[nH]2)cc1`, the Motility in the assay with Onchocerca lienalis [1] is on record as 100%; in the assay with Onchocerca lienalis [2], 100%; with Onchocerca lienalis [3] it was 66.66%; in the assay with Onchocerca lienalis [4] it was 33.33%.

For the molecule `O=C(CSc1ccc2nnc(-c3cccc(F)c3)n2n1)Nc1ccc2c(c1)OCO2`, the Motility in the assay with Onchocerca lienalis [1], with Onchocerca lienalis [2], in the assay on Onchocerca lienalis [3] and with Onchocerca lienalis [4] was 100% each time.

Consider `Cc1c(C)n(Cc2ccc(F)cc2)c2ccc(C(=O)NCc3ccco3)cc12`, for which the Motility in the assay on Onchocerca lienalis [1], in the assay on Onchocerca lienalis [2], in the assay on Onchocerca lienalis [3] and with Onchocerca lienalis [4] was 100% throughout.

Consider `CCN(CC)c1ccc(NC(=O)c2cccs2)cc1`, for which the Motility in the assay on Onchocerca lienalis [1], in the assay on Onchocerca lienalis [2], in the assay on Onchocerca lienalis [3] and with Onchocerca lienalis [4] was 100% each time.

For the molecule `CCCCNCC(O)(c1ccc(Cl)cc1)c1ccc(Cl)cc1`, the Motility in the assay on Onchocerca lienalis [1], with Onchocerca lienalis [2], with Onchocerca lienalis [3] and in the assay on Onchocerca lienalis [4] was 100% throughout.

Take `Cc1ccc(Cn2c(N3CCC(C(=O)NCc4cccs4)CC3)nc3ccccc32)cc1`: the Motility with Onchocerca lienalis [1], in the assay with Onchocerca lienalis [2], in the assay with Onchocerca lienalis [3] and in the assay with Onchocerca lienalis [4] was 100% each time.

With `O=C(Nc1ccsc1C(=O)NC1CCCCC1)c1ccc(F)cc1`, the Motility with Onchocerca lienalis [1], in the assay on Onchocerca lienalis [2], in the assay with Onchocerca lienalis [3] and in the assay on Onchocerca lienalis [4] was 100% each time.

On to `O=C(Nc1cccc(C(F)(F)F)c1)c1cc(Cl)ccc1O`, for which the Motility is reported as 100% in the assay with Onchocerca lienalis [1], 100% in the assay with Onchocerca lienalis [2], 53.33% in the assay with Onchocerca lienalis [3] and 0% in the assay on Onchocerca lienalis [4].

`CCOc1cccc2sc(N(Cc3cccnc3)C(=O)C3CCCCC3)nc12`: the Motility in the assay with Onchocerca lienalis [1], in the assay with Onchocerca lienalis [2], in the assay with Onchocerca lienalis [3] and with Onchocerca lienalis [4] was 100% each time.

For `CC(C)(C)CC(C)(C)NCC(O)COc1ccc2c(c1)CCC2.Cl` (centres undefined), the Motility in the assay on Onchocerca lienalis [1], with Onchocerca lienalis [2], in the assay on Onchocerca lienalis [3] and in the assay on Onchocerca lienalis [4] was 100% throughout.

With `CCOc1ccc(/C=C/c2nc(=O)c3ccccc3o2)cc1`, the Motility in the assay on Onchocerca lienalis [1], in the assay on Onchocerca lienalis [2], in the assay with Onchocerca lienalis [3] and in the assay with Onchocerca lienalis [4] was 100% each time.

With `O=C(Nc1ccccc1O)c1ccc(-c2ccc(Cl)cc2Cl)o1`, the Motility with Onchocerca lienalis [1], in the assay on Onchocerca lienalis [2], in the assay with Onchocerca lienalis [3] and in the assay with Onchocerca lienalis [4] was 100% in each case.

Regarding `O=C(Nc1nc(-c2ccccn2)cs1)c1ccccc1Br`, the Motility in the assay on Onchocerca lienalis [1] is reported as 100%; with Onchocerca lienalis [2] it was 100%; with Onchocerca lienalis [3], 60%; in the assay on Onchocerca lienalis [4], 0%.

For the molecule `CC(O)(c1ccc(Cl)cc1)C(CN1CCCCC1)c1ccccc1.Cl` (centres undefined), the Motility in the assay on Onchocerca lienalis [1] was found to be 100%; with Onchocerca lienalis [2], 100%; with Onchocerca lienalis [3] it was 100%; in the assay with Onchocerca lienalis [4], 66.6%.

Regarding `CCCCc1ccc(NS(=O)(=O)c2cc3c4c(c2)CCN4C(=O)CC3)cc1`, the Motility in the assay on Onchocerca lienalis [1], with Onchocerca lienalis [2], in the assay on Onchocerca lienalis [3] and with Onchocerca lienalis [4] was 100% each time.

For the molecule `CCOc1ccccc1CNC(=O)C1c2ccccc2C(=O)N(CC(C)C)C1c1cccs1` (centres undefined), the Motility in the assay on Onchocerca lienalis [1], in the assay with Onchocerca lienalis [2], in the assay on Onchocerca lienalis [3] and in the assay on Onchocerca lienalis [4] was 100% in each case.

`COc1ccccc1N1CCN(C(CNS(=O)(=O)c2ccc(Cl)cc2)c2cccnc2)CC1` (centres undefined): the Motility in the assay with Onchocerca lienalis [1], in the assay on Onchocerca lienalis [2], in the assay with Onchocerca lienalis [3] and in the assay with Onchocerca lienalis [4] was 100% each time.

Regarding `COc1ccc(C2Sc3ccccc3N=C3C2=C(O)c2ccccc23)cc1` (centres undefined), the Motility with Onchocerca lienalis [1], in the assay on Onchocerca lienalis [2], with Onchocerca lienalis [3] and with Onchocerca lienalis [4] was 100% throughout.

On to `CCN(CC)CCCNc1nc(-c2ccc(Cl)cc2)nc2ccccc12`, for which the Motility stood at 100% with Onchocerca lienalis [1], 100% in the assay with Onchocerca lienalis [2], 100% with Onchocerca lienalis [3] and 66.6% in the assay with Onchocerca lienalis [4].

For the molecule `C=C(C)CCC(C)N1CCC(N2CCC(C(=O)NCCc3ccccc3)CC2)CC1` (centres undefined), the Motility with Onchocerca lienalis [1], in the assay on Onchocerca lienalis [2], in the assay with Onchocerca lienalis [3] and in the assay on Onchocerca lienalis [4] was 100% in each case.
